Test results: PubChem BioAssay AID248 (DTP/NCI, 2004)
Several values for one entry are separate records, joined by “and”; a condition that tells them apart may be missing. Equal values may be shown once. Inconclusive results and toxic doses are left out. Rule as the data show it: active = T/C of 150% or more; inactive = T/C below 125%.

Test system: L1210 leukemia ip in BDF1 mice, survival T/C
Experiment: NCI In Vivo Anticancer Drug Screen. Data for tumor model L1210 Leukemia (intraperitoneal) in B6D2F1 (BDF1) mice
Settings: endpoint: mean survival time, higher = longer survival
Outline: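 Antitumor effect is assessed in tumor-bearing animals. Survival in the compound arm is compared with a vehicle-dosed control arm and expressed as their quotient.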

[1] = dose: 100.0 mg/kg/injection, schedule: Q01DX009 (ip), vehicle: Klucel (hydroxypropylcellulose) (HPC)
[2] = dose: 200.0 mg/kg/injection, schedule: Q01DX009 (ip), vehicle: Klucel (hydroxypropylcellulose) (HPC)
[3] = dose: 400.0 mg/kg/injection, schedule: Q01DX009 (ip), vehicle: Klucel (hydroxypropylcellulose) (HPC)

Measured: T/C

CN(C)CC(=O)c1ccc(O)c(O)c1
inactive: dose: 29.5 mg/kg/injection, schedule: Q#A X Z (ip), vehicle: saline 123 % of control | dose: 44.5 mg/kg/injection, schedule: Q#A X Z (ip), vehicle: saline 124 % of control | dose: 50.0 mg/kg/injection, schedule: Q01DX Z (ip), vehicle: saline 109 % of control | dose: 75.0 mg/kg/injection, schedule: Q01DX010 (ip), vehicle: saline 112 % of control and 114 % of control | dose: 75.0 mg/kg/injection, schedule: Q01DX Z (ip), vehicle: carboxymethylcellulose (CMC) 110 % of control | dose: 75.0 mg/kg/injection, schedule: Q01DX Z (ip), vehicle: clinical formulation 110 % of control and 113 % of control | dose: 75.0 mg/kg/injection, schedule: Q01DX Z (ip), vehicle: water 112 % of control | dose: 100.0 mg/kg/injection, schedule: Q01DX Z (ip), vehicle: saline 116 % of control | dose: 133.0 mg/kg/injection, schedule: Q01DX Z (ip), vehicle: saline 124 % of control | dose: 150.0 mg/kg/injection, schedule: Q01DX Z (ip), vehicle: carboxymethylcellulose (CMC) 112 % of control | dose: 150.0 mg/kg/injection, schedule: Q01DX Z (ip), vehicle: clinical formulation 116 % of control | dose: 150.0 mg/kg/injection, schedule: Q01DX Z (ip), vehicle: water 124 % of control | dose: 150.0 mg/kg/injection, schedule: Q#A X Z (ip), vehicle: saline 118 % of control | dose: 200.0 mg/kg/injection, schedule: Q01DX007 (iv), vehicle: saline 104 % of control | dose: 200.0 mg/kg/injection, schedule: Q01DX Z (sc), vehicle: saline 108 % of control | dose: 200.0 mg/kg/injection, schedule: Q## X Z (ip), vehicle: saline 100 % of control | dose: 266.0 mg/kg/injection, schedule: Q03DX Z (ip), vehicle: saline 123 % of control | dose: 300.0 mg/kg/injection, schedule: Q01DX007 (iv), vehicle: saline 95 % of control | dose: 300.0 mg/kg/injection, schedule: Q01DX Z (ip), vehicle: clinical formulation 118 % of control | dose: 300.0 mg/kg/injection, schedule: Q01DX Z (ip), vehicle: water 116 % of control | dose: 300.0 mg/kg/injection, schedule: Q01DX Z (sc), vehicle: saline 108 % of control | dose: 300.0 mg/kg/injection, schedule: Q## X Z (ip), vehicle: saline 100 % of control | dose: 400.0 mg/kg/injection, schedule: Q03DX Z (ip), vehicle: saline 117 % of control | dose: 450.0 mg/kg/injection, schedule: Q01DX Z (sc), vehicle: saline 103 % of control | dose: 450.0 mg/kg/injection, schedule: Q## X Z (ip), vehicle: saline 100 % of control | dose: 532.0 mg/kg/injection, schedule: Q01DX Z (oral), vehicle: saline 94 % of control | dose: 600.0 mg/kg/injection, schedule: Q03DX Z (ip), vehicle: saline 102 % of control and 112 % of control (2×) | dose: 622.0 mg/kg/injection, schedule: Q07DX Z (ip), vehicle: saline 115 % of control | dose: 675.0 mg/kg/injection, schedule: Q01DX Z (sc), vehicle: saline 116 % of control | dose: 675.0 mg/kg/injection, schedule: Q## X Z (ip), vehicle: saline 102 % of control | dose: 800.0 mg/kg/injection, schedule: Q01DX Z (ip), vehicle: carboxymethylcellulose (CMC) 102 % of control | dose: 800.0 mg/kg/injection, schedule: Q01DX Z (oral), vehicle: saline 101 % of control and 88 % of control | dose: 933.0 mg/kg/injection, schedule: Q07DX Z (ip), vehicle: saline 104 % of control | dose: 1200.0 mg/kg/injection, schedule: Q01DX Z (oral), vehicle: saline 102 % of control and 106 % of control | dose: 1400.0 mg/kg/injection, schedule: Q07DX Z (ip), vehicle: saline 113 % of control | dose: 1800.0 mg/kg/injection, schedule: Q01DX Z (oral), vehicle: saline 100 % of control
active: dose: 450.0 mg/kg/injection, schedule: Q01DX Z (ip), vehicle: saline 153 % of control

CCOCCOCCOC(=O)COCC(=O)OCCOCCOCC
inactive: dose: 100.0 mg/kg/injection, schedule: Q01DX001 (ip), vehicle: saline 96 % of control | dose: 200.0 mg/kg/injection, schedule: Q01DX001 (ip), vehicle: saline 113 % of control | dose: 400.0 mg/kg/injection, schedule: Q01DX001 (ip), vehicle: saline 111 % of control

O=[N+]([O-])c1cccc(S(=O)(=O)Oc2ccccc2)c1
inactive: [1] 102 % of control | [2] 95 % of control | [3] 101 % of control

ClC1(Cl)C2CCCOC21 (configuration not stated)
inactive: [1] 97 % of control | [2] 100 % of control | [3] 98 % of control

Oc1ccccc1C=Nc1cnc2ccccc2c1
inactive: dose: 100.0 mg/kg/injection, schedule: Q01DX001 (ip), vehicle: carboxymethylcellulose (CMC) 95 % of control | dose: 200.0 mg/kg/injection, schedule: Q01DX001 (ip), vehicle: carboxymethylcellulose (CMC) 98 % of control | dose: 400.0 mg/kg/injection, schedule: Q01DX001 (ip), vehicle: carboxymethylcellulose (CMC) 95 % of control

N#Cc1c(/N=C/c2ccc3c(c2)CCC3)oc(-c2ccccc2)c1-c1ccccc1
inactive: dose: 100.0 mg/kg/injection, schedule: Q04DX003 (ip), vehicle: Klucel (hydroxypropylcellulose) (HPC) 103 % of control | dose: 200.0 mg/kg/injection, schedule: Q04DX003 (ip), vehicle: Klucel (hydroxypropylcellulose) (HPC) 97 % of control | dose: 400.0 mg/kg/injection, schedule: Q04DX003 (ip), vehicle: Klucel (hydroxypropylcellulose) (HPC) 94 % of control
